Test results as given in PubChem BioAssay (NCI).
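GI50: concentration for 50% inhibition of growth. The concentration for full growth arrest is given as TGI.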

Tests used:
Assay in all cases: inhibition of tumour cell growth, NCI panel, 384-well format
[1] = tested on: 786-0 renal
[2] = tested on: A498 renal
[3] = tested on: A549 NSCLC
[4] = tested on: ACHN renal
[5] = tested on: BT-549 breast
[6] = tested on: CAKI-1 renal
[7] = tested on: CCRF-CEM leukemia
[8] = tested on: COLO 205 colon
[9] = tested on: DU-145 prostate
[10] = tested on: EKVX NSCLC
[11] = tested on: HCC-2998 colon
[12] = tested on: HCT-15 colon
[13] = tested on: HL-60(TB) leukemia
[14] = tested on: HOP-62 NSCLC
[15] = tested on: HOP-92 NSCLC
[16] = tested on: HS 578T breast
[17] = tested on: HT29 colon
[18] = tested on: IGROV1 ovarian
[19] = tested on: K-562 leukemia
[20] = tested on: KM12 colon
[21] = tested on: LOX IMVI melanoma
[22] = tested on: M14 melanoma
[23] = tested on: MALME-3M melanoma
[24] = tested on: MCF7 breast
[25] = tested on: MDA-MB-231 breast
[26] = tested on: MDA-MB-435 melanoma
[27] = tested on: MDA-MB-468 breast
[28] = tested on: MOLT-4 leukemia
[29] = tested on: NCI-H226 lung
[30] = tested on: NCI-H23 lung
[31] = tested on: NCI-H322M lung
[32] = tested on: NCI-H460 NSCLC
[33] = tested on: NCI-H522 lung
[34] = tested on: NCI/ADR-RES ovarian
[35] = tested on: OVCAR-3 ovarian
[36] = tested on: OVCAR-4 ovarian
[37] = tested on: OVCAR-5 ovarian
[38] = tested on: OVCAR-8 ovarian
[39] = tested on: PC-3 prostate
[40] = tested on: RPMI-8226 leukemia
[41] = tested on: RXF 393 renal
[42] = tested on: SF-268 CNS
[43] = tested on: SF-295 CNS
[44] = tested on: SF-539 CNS
[45] = tested on: SK-MEL-28 melanoma
[46] = tested on: SK-MEL-5 melanoma
[47] = tested on: SK-OV-3 ovarian
[48] = tested on: SN12C renal
[49] = tested on: SNB-19 CNS
[50] = tested on: SNB-75 CNS
[51] = tested on: SR leukemia
[52] = tested on: SW-620 colon
[53] = tested on: T-47D breast
[54] = tested on: TK-10 renal
[55] = tested on: UACC-257 melanoma
[56] = tested on: UACC-62 melanoma
[57] = tested on: UO-31 renal
[58] = tested on: HCT-116 colon
[59] = tested on: SK-MEL-2 melanoma
[60] = tested on: U251 glioblastoma

C[C@@H](CO)NC(=O)c1cc(-c2ccc(Cl)cc2)nn(-c2cnn(C)c2)c1=O
GI50 [1]: 17.1 µM | TGI [1]: 61.3 µM | GI50 [2]: 14.4 µM | TGI [2]: 28.7 µM | GI50 [3]: 17.7 µM | TGI [3]: 37.5 µM | GI50 [4]: 15.5 µM | TGI [4]: 35.4 µM | GI50 [5]: 16.1 µM | TGI [5]: 33.8 µM | GI50 [6]: 17.7 µM | TGI [6]: 49.2 µM | GI50 [7]: 13.4 µM | TGI [7]: 29.7 µM | GI50 [8]: 23.7 µM | TGI [8]: 87.2 µM | GI50 [9]: 16.9 µM | TGI [9]: 36 µM | GI50 [10]: 27.3 µM | TGI [10]: 77.9 µM | GI50 [11]: 23.5 µM | TGI [11]: 53.4 µM | GI50 [12]: 27.1 µM | TGI [12]: > 100 µM | GI50 [13]: 16.5 µM | TGI [13]: 30.1 µM | GI50 [14]: 17 µM | TGI [14]: 40 µM | GI50 [15]: 10.2 µM | TGI [15]: 43.7 µM | GI50 [16]: 17.2 µM | TGI [16]: 36.9 µM | GI50 [17]: 25.9 µM | TGI [17]: > 100 µM | GI50 [18]: 18.3 µM | TGI [18]: 42.4 µM | GI50 [19]: 18.5 µM | TGI [19]: 34.3 µM | GI50 [20]: 35.2 µM | TGI [20]: > 100 µM | GI50 [21]: 17.1 µM | TGI [21]: 30.9 µM | GI50 [22]: 27.1 µM | TGI [22]: 60.5 µM | GI50 [23]: 13.4 µM | TGI [23]: 34.1 µM | GI50 [24]: 15.8 µM | TGI [24]: 29.4 µM | GI50 [25]: 30 µM | TGI [25]: > 100 µM | GI50 [26]: 27.7 µM | TGI [26]: 80.1 µM | GI50 [27]: 16.7 µM | TGI [27]: 32 µM | GI50 [28]: 1.87 µM | TGI [28]: 3.63 µM | GI50 [29]: 16.8 µM | TGI [29]: 35 µM | GI50 [30]: 24.8 µM | TGI [30]: 60.7 µM | GI50 [31]: 23.5 µM | TGI [31]: 64 µM | GI50 [32]: 13.8 µM | TGI [32]: 33.4 µM | GI50 [33]: 16.9 µM | TGI [33]: 31.2 µM | GI50 [34]: 19.3 µM | TGI [34]: 44.4 µM | GI50 [35]: 22.6 µM | TGI [35]: 50.7 µM | GI50 [36]: 25.5 µM | TGI [36]: 69.6 µM | GI50 [37]: 32.2 µM | TGI [37]: > 100 µM | GI50 [38]: 23.7 µM | TGI [38]: 95.9 µM | GI50 [39]: 24.4 µM | TGI [39]: 62.7 µM | GI50 [40]: 13.8 µM | TGI [40]: 27 µM | GI50 [41]: 15.2 µM | TGI [41]: 53.4 µM | GI50 [42]: 22.6 µM | TGI [42]: 70.7 µM | GI50 [43]: 18.5 µM | TGI [43]: 41.2 µM | GI50 [44]: 19.4 µM | TGI [44]: 51.7 µM | GI50 [45]: 21.9 µM | TGI [45]: 49.7 µM | GI50 [46]: 12.6 µM | TGI [46]: 25.3 µM | GI50 [47]: 27.3 µM | TGI [47]: 72.7 µM | GI50 [48]: 24.3 µM | TGI [48]: 78.6 µM | GI50 [49]: 27.8 µM | TGI [49]: 88.5 µM | GI50 [50]: 25.8 µM | TGI [50]: 93.1 µM | GI50 [51]: 10.7 µM | TGI [51]: 22.7 µM | GI50 [52]: 38.8 µM | TGI [52]: > 100 µM | GI50 [53]: 26.9 µM | TGI [53]: 67.9 µM | GI50 [54]: 16.7 µM | TGI [54]: 63.3 µM | GI50 [55]: 24.9 µM | TGI [55]: 40.1 µM | GI50 [56]: 11.5 µM | TGI [56]: 23.7 µM | GI50 [57]: 27.1 µM | TGI [57]: > 100 µM

O=C1C=CC(Nc2ccccc2[N+](=O)[O-])C1Nc1ccccc1[N+](=O)[O-] (centres undefined)
GI50 [1]: 1.78 µM | TGI [1]: 3.32 µM | GI50 [2]: 2.01 µM | TGI [2]: 3.8 µM | GI50 [3]: 3.54 µM | TGI [3]: 11.8 µM | GI50 [4]: 1.62 µM | TGI [4]: 3.01 µM | GI50 [5]: 1.58 µM | TGI [5]: 3.08 µM | GI50 [6]: 1.29 µM | TGI [6]: 2.58 µM | GI50 [7]: 0.386 µM | TGI [7]: 1.35 µM | GI50 [8]: 1.91 µM | TGI [8]: 3.37 µM | GI50 [9]: 4.87 µM | TGI [9]: 15.7 µM | GI50 [10]: 3.02 µM | TGI [10]: 8.07 µM | GI50 [11]: 2.05 µM | TGI [11]: 4.78 µM | GI50 [58]: 1.32 µM | TGI [58]: 2.64 µM | GI50 [12]: 1.56 µM | TGI [12]: 2.94 µM | GI50 [13]: 0.148 µM | TGI [13]: 0.281 µM | GI50 [14]: 2.3 µM | TGI [14]: 3.94 µM | GI50 [15]: 2 µM | TGI [15]: 3.57 µM | GI50 [16]: 1.84 µM | TGI [16]: 3.42 µM | GI50 [17]: 1.62 µM | TGI [17]: 3.15 µM | GI50 [18]: 2.02 µM | TGI [18]: 4.16 µM | GI50 [19]: 4.85 µM | TGI [19]: 15 µM | GI50 [20]: 2.12 µM | TGI [20]: 5.95 µM | GI50 [21]: 1.84 µM | TGI [21]: 3.47 µM | GI50 [22]: 1.71 µM | TGI [22]: 3.16 µM | GI50 [23]: 2.27 µM | TGI [23]: 3.74 µM | GI50 [24]: 1.64 µM | TGI [24]: 3.04 µM | GI50 [26]: 2.4 µM | TGI [26]: 5.28 µM | GI50 [27]: 0.51 µM | TGI [27]: 0.967 µM | GI50 [28]: 0.344 µM | TGI [28]: 1.09 µM | GI50 [29]: 1.53 µM | TGI [29]: 2.93 µM | GI50 [30]: 1.98 µM | TGI [30]: 3.62 µM | GI50 [31]: 13.8 µM | TGI [31]: 26.9 µM | GI50 [32]: > 100 µM | TGI [32]: > 100 µM | GI50 [33]: 1.39 µM | TGI [33]: 2.69 µM | GI50 [34]: 2.78 µM | TGI [34]: 5.64 µM | GI50 [35]: 1.52 µM | TGI [35]: 2.87 µM | GI50 [36]: 1.78 µM | TGI [36]: 3.34 µM | GI50 [38]: 1.66 µM | TGI [38]: 3.06 µM | GI50 [39]: 1.58 µM | TGI [39]: 2.96 µM | GI50 [40]: 0.222 µM | TGI [40]: 0.41 µM | GI50 [41]: 1.71 µM | TGI [41]: 3.11 µM | GI50 [42]: 2.34 µM | TGI [42]: 4.42 µM | GI50 [43]: 19.5 µM | TGI [43]: 34.6 µM | GI50 [44]: 1.59 µM | TGI [44]: 2.95 µM | GI50 [59]: 0.445 µM | TGI [59]: 1.29 µM | GI50 [45]: 1.95 µM | TGI [45]: 3.41 µM | GI50 [46]: 1.75 µM | TGI [46]: 3.2 µM | GI50 [47]: 4.5 µM | TGI [47]: 15.9 µM | GI50 [48]: 1.76 µM | TGI [48]: 3.15 µM | GI50 [49]: 5.2 µM | TGI [49]: 15.6 µM | GI50 [50]: 4.16 µM | TGI [50]: 10.1 µM | GI50 [52]: 1.73 µM | TGI [52]: 3.15 µM | GI50 [54]: 1.65 µM | TGI [54]: 3.03 µM | GI50 [60]: 2.11 µM | TGI [60]: 3.78 µM | GI50 [55]: 1.83 µM | TGI [55]: 3.23 µM | GI50 [56]: 1.68 µM | TGI [56]: 3.1 µM
